# Data reported in paper PMC4186434, “Antagonism of human CC-chemokine receptor 4 can be achieved through three distinct binding sites on the receptor” (Pharmacology Research & Perspectives, 2013).
# Biological target: T1, human CC-chemokine receptor 4 (CCR4); CHO-CCR4 membranes (Homo sapiens, UniProt P51679)
# T1 construct: membranes
# T1 sequence (P51679 1-360): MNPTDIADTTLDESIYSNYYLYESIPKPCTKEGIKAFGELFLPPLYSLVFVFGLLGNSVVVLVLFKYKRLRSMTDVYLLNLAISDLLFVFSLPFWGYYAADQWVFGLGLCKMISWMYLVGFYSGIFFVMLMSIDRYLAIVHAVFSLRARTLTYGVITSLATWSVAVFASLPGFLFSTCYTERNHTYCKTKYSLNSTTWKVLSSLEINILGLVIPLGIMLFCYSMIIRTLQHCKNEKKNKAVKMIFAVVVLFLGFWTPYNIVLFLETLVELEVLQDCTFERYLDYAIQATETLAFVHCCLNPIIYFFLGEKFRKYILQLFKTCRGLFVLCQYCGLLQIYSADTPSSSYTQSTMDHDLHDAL
# Experiment: […]CCL17 displacement, scintillation proximity assay, CHO-CCR4 membranes
# Type: binding
# Settings: read-out: [^125I]CCL17 / pKi (converted)
row,Ki [nM],SMILES
1,18.2,COc1cccc2c1c(NS(=O)(=O)c1ccc(Cl)s1)nn2Cc1cccc(CNC(=O)OC(C)(C)C)c1 [compound 2]
2,2,COc1cc2nc(N3CCC(N(C)C(=O)[C@H]4CCCN4)CC3)nc(Nc3ccc(Cl)cc3F)c2cc1OC [compound 6]
3,6.17,COc1cccc2c1c(NS(=O)(=O)c1ccc(Cl)s1)nn2Cc1cccc(CNC(=O)C(C)(C)O)c1 [compound 3]
4,457,c1ccc2c(Nc3nc(CN(CC4CCCCC4)CC4CCCCC4)cs3)cccc2c1 [compound 1]
5,29.5,COc1nc(Br)cnc1NS(=O)(=O)c1ccc(Cl)s1 [compound 7]
6,2.75,O=C([C@H]1CCCCN1)N1CCN(c2nccc(NCc3ccc(Cl)cc3Cl)n2)CC1 [compound 4]
